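These data come from cells grown in 96-well plates and exposed to compound for 48 hours at five concentrations. TGI: concentration producing complete growth inhibition.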
Tests used:
Test in all cases: DTP human tumour cell line panel, 48 h
[1] = tested on: UACC-62 melanoma
[2] = tested on: HCC-2998 colon
[3] = tested on: SK-MEL-28 melanoma
[4] = tested on: HL-60(TB) leukemia
[5] = tested on: DLD-1 colon
[6] = tested on: A549 NSCLC
[7] = tested on: NCI-H460 lung
[8] = tested on: COLO 205 colon
[9] = tested on: DMS 273 small cell lung
[10] = tested on: DMS 114 small cell lung
[11] = tested on: LXFL 529 NSCLC
[12] = tested on: MDA-N
[13] = tested on: BT-549 breast

SMILES	TGI [1] [µM]	TGI [2] [µM]	TGI [3] [µM]	TGI [4] [µM]	TGI [5] [µM]	TGI [6] [µM]	TGI [7] [µM]	TGI [8] [µM]	TGI [9] [µM]	TGI [10] [µM]	TGI [11] [µM]	TGI [12] [µM]	TGI [13] [µM]
CCCCCCCCCCCCCCCCNCC(O)CN (stereo not drawn)	17	5.84	25.8	4.93	3.66	10.2	3.56	3.81	14.3	21			
Nc1ncnc2c1ncn2CCCC(c1ccccc1)P(=O)(O)O (stereo not drawn)	> 100	> 100	> 100	> 100	> 100	> 100	> 100	> 100	> 100	> 100	> 100		
C=C1C2C[C@@H]3OC4CC5O[C@]6(CC5OC4C(C)C3OC(=O)CC3CC[C@@H]4OC5C7OC8C[C@](CCC9CC(=C)[C@H](CCC(C[C@H]1C)O2)O9)(OC7C4O3)O[C@@H]85)C[C@@H]1O[C@@]2(CC(C)[C@@H]3OC(CC(=O)CCO)C(O)C[C@@H]3O2)CC(C)[C@@H]1O6 (stereo partly drawn)	0.181	< 0.001			1.24	1.28	1.33	< 0.001	< 0.001		1.19		
CC(=O)Oc1c2c(c(OC(C)=O)c3c1n(C(C)=O)c1ccccc1n3C(C)=O)n(C(C)=O)c1ccccc1n2C(C)=O	37	18.9	16.8	6.1	11.8	24.2	15.4		10.6	7.96	16.5		
C[N+](C)(C)CCOC(=O)/C=C/c1cnc[nH]1	> 500	> 500	> 500	> 500	> 500	> 500	> 500	> 500	> 500	> 500			
N=c1n(CC(=O)NC23CC4CC(CC(C4)C2)C3)c2ccccc2n1CC(=O)NC12CC3CC(CC(C3)C1)C2	3.45	2.65	3.17	4.82	3.5		3.17	3.49	3.35	3.67	3.46		
C[N+](C)=c1ccc2nc3c(ccc4ccccc43)oc-2c1	16.3	37.7	28.4	6.32	21.1	37.1	37.7	> 57.9	39.2	54.4	19.4		
Nc1ncnc2c1sc(=S)n2-c1ccccc1	> 100	> 100	> 100	> 100	> 100	> 100	> 100	> 100	> 100	> 100	> 100		
C/C=C/c1cc2c(c(=O)o1)C(=O)[C@@H](O)[C@H](C)O2	34.1	24	29.5	54.4	20	34.3	46.9	25.7	29.7	19.1			
N#CNC(=NCc1ccccc1)NCCc1c[nH]c2ccccc12	> 100	> 100	> 100	> 100	> 100	> 100	> 100	> 100	> 100	> 100	> 100		
O=C(NC12CC3CC(CC(C3)C1)C2)C(=O)c1c[nH]c2ccc(Br)cc12	> 100	> 100	> 100	> 100	89	42.4	27	45.1	17.6	> 100	37.3		
COc1ccc(C2S/C(=C\c3cccc(OC)c3)C(=O)N2NC(=O)Cc2ccccc2)cc1 (stereo not drawn)	> 100		> 100	> 100	> 100	> 100	> 100	> 100	> 100		> 100		
COc1cccc2c1C(=O)c1c(O)c3c(c(O)c1C2=O)C[C@@](O)(C(=O)CN1CCOCC1)C[C@@H]3OC1CC(N)C(O)C(C)O1 (stereo partly drawn)	15.7	23.3	29.1	5.19	> 74.4	48.6	> 69.9	24.1	20.5	21.8			
CC(=O)OC12CC(C(F)(F)F)(C(F)(F)F)OC1(OC(C)=O)CC(C(F)(F)F)(C(F)(F)F)O2 (stereo not drawn)	> 100	> 100	> 100	11.3		5.6	> 100	25.6				> 100	> 100
NC(=O)COc1c(Br)cc(Br)cc1Br	> 100	> 100	> 100		> 100	> 100	> 100	> 100	> 100	> 100			
NC(=S)Nc1ccc2c(c1)oc1ccccc12	> 100	> 100	> 100	> 100		> 100	> 100	> 100				> 100	> 100
Cc1ccc(S(=O)(=O)/N=C2/N(C)CCCS2(=O)=O)cc1	> 100	> 100	> 100	> 100		> 100	> 100	> 100				> 100	> 100
Cc1nc(N)sc1C(=O)Nc1ncn[nH]1	> 100	> 100	> 100	49.9		> 100	> 100	> 100				> 100	> 100
CC(=O)NNC(=S)/N=C\c1c(O)c2ccccc2oc1=O	> 100	> 100	> 100	> 100		> 100	> 100	> 100				> 100	> 100
CC(C)NCC(O)c1ccc(O)c2ncccc12 (stereo not drawn)	> 100	> 100	> 100	> 100		> 100	> 100	36.4				> 100	> 100
COC1=CC(=O)C2C(C1=O)[C@@H]1c3ccccc3OC(C)(C)[C@H]21 (stereo partly drawn)		> 100	32.8	33.8	34	> 100	> 100	35.1	40.6	40.8	32.8		
N#C/C=c1/c2ccccc2n2nc3ccccc3c12	> 100	> 100	> 100	> 100		> 100	> 100	85.3				> 100	> 100
COCCOC(C)C(=O)C(O)S(=O)(=O)O (stereo not drawn)	> 100	> 100	> 100	> 100		> 100	> 100	> 100				> 100	> 100
Nc1ncnc2c1ncn2C1OC(CO)C(O)C1NS(=O)(=O)c1ccccc1 (stereo not drawn)	> 100	> 100	> 100	> 100		> 100	> 100	> 100				> 100	> 100
Brc1c2nc3ccccc3nc2n2ccc3ccccc3c12	> 100	> 100	> 100	> 100	> 100	> 100	> 100	> 100	> 100	> 100	> 100		
N=S(=O)(c1ccccc1)c1ccccc1	> 100	> 100	> 100	> 100	> 100	> 100	> 100	> 100		> 100	> 100		

— PubChem BioAssay (NCI)
